Experimental data published in US7871978B2, “Bone tropic peptides” (University of Virginia Patent Foundation, priority 2004, dated 2011).

Tests used:
[1] = test system: bovine aortic endothelial cells; experiment: Effect of peptides on adherent bovine aortic endothelial cells on fibronectin or collagen; assay type: cell-based; settings: for Effect on adherent BAEC (Experiment 1): 0.1M biotinylated peptide, 1 hour, cells adhered four hours on fibronectin or collagen
Method: Peptides from the phage display project were added to bovine aortic endothelial cells in culture. The endothelial cells had adhered to a surface coated with collagen or with fibronectin.
Experiment 1: Bovine aortic endothelial cells were plated on glass slides that were coated either fibronectin or collagen. The cell density was 5,000 cells/well. After the cells adhered for four hours, 0.1M of biotinylated peptide was added to each well. The following peptides were used: L1, L2, L5, L6, L7, L12, L13, L14, L19, R1, R3, and R8.
To perform this experiment, the media was removed and the cells were rinsed with 1×PBS plus 1% BSA three times. Peptides were diluted in 1×PBS plus 1% BSA, added to cells and incubated for 1 hour. The cells were rinsed three times with 1% BSA in PBS, and fixed with 2% parafomaldehyde. Aldehyde groups were blocked with 0.2 M HCl-glycine in PBS, the cells were rinsed three times with 1% BSA in PBS and ExtrAvidin-FITC (1:200 dilution) was added and incubated overnight at 4° C. The cells were rinsed three times with 1% BSA in PBS. The chambers and the gasket were removed from each slide, Vectashield was added, covered and viewed on a Nikon microscope. Images were acquired using a Coolsnap digital camera and Metavue software. […]
Experiment 3: The cells were adherent for about 6 hours and peptides at various concentrations were added to the cells. The concentrations of each of the peptides used in this experiment were: 0.1M, 0.01M, 0.001M and 0.0001M biotinylated peptide. The following peptides were tested: L1, L5, L6, L7, L13, L14, R1, R3, R8, DIP1 and PBS control (SEQ ID NOs:1, 3, 4, 5, 8, 9, 11, 13, 14, and 29).

C4-2 cells = experiment: Prostate cancer cell adhesion to BMEC: C4-2; assay type: cell-based; settings: FIG. 8; preliminary results
Method: (§1) FIG. 8 is a graphic representation of the effects of various peptides on altering cellular adhesion to BMEC cells in vitro. LNCaP cells were compared directly to C4-2 cells for the ability of specific phage-derived peptides to alter cellular adhesion to BMEC cells in vitro. Adhesion was measured at […]. C=control (no peptide). The ordinate represents percent of acid precipitable counts bound and the abscissa indicated the cells treated and the peptides used.
(§2) The phage-derived bone-targeting peptides isolated by biopanning were tested for their ability to alter the adhesion of prostate cancer cells to a human bone marrow endothelial cell line (see FIG. 8). In this assay, LNCaP cells were compared directly to the more metastatic, bone colonizing derivative, C4-2.

[2] = test system: bone and marrow tissue sections (mouse femur, rib); experiment: Biotinylated peptide binding to bone/marrow tissue sections, Avidin-FITC fluorescence; settings: biotinylated peptides; 1/50,000 dilution of Avidin-FITC
Method: Methods: Four-week old Swiss Webster mice were euthanized; the femurs were excised and decalcified in 0.25M EDTA in PBS solution for 5 days, and washed in PBS for 24 hours. The femoral shafts were obtained by cutting off the proximal and distal ends of the femur. The femoral shafts were placed in Tissue-Tek O.C.T. Compound (Sukura Finetek, Torrance, Calif.) and frozen at −20° C. overnight. Sections were cut at 10 μm serially with a cryomicrotome, rinsed with 1% BSA in PBS three times. To block non-specific reaction sections were incubated with Avidin/Biotin Blocking Kit (Vector Laboratories, Inc. Burlingame, Calif.) according to the manufacturer's instructions. Following another rinse with PBS, 150 μl 10 mM solution of each biotinylated peptide (L1, L2, L7, R1, R8) was added to the slides and incubated for 1 hour at room temperature. In negative controls, only PBS was added. After rewashes with 1% BSA, 150 μl of 1:50,000 dilution of Avidin-FITC was added to each slide and incubated overnight at 4° C.
The sections were washed with 1% BSA in PBS and mounted with Vectashield (Vector Laboratories Inc., Burlingame, Calif.). Fluorescence was visualized using a Nikon eclipse E600 microscope (Nikon, Melville, N.Y.) equipped with a 535 nm wavelength fluorescein filter. Images were obtained using a Sony DKC-5000 digital camera (Sony Electronics Inc.) and processed with Adobe Photoshop software (Adobe Systems Incorporated, San Jose, Calif.).
(§3) For localization of peptide binding to cells and tissue sections, biotinylated peptides were synthesized. Fluorescein-isothiocyanate (FITC) labeled Avidin was used to localize the peptides on cells in culture and in tissue sections in vitro by epiluminescence microscopy. In addition, the biotinylated peptides were detected at concentrations as low as 1 μM in slot blots.
Cryosections of decalcified femurs harvested from 4 week BALB/c mice were incubated with biotinylated peptide and Avidin-FITC. […] The distribution of fluorescence throughout the marrow was uneven. […] In control slides incubated with PBS without peptide, none of the cells could be detected by fluorescence (not shown). […]

LNCaP cells = experiment: Prostate cancer cell adhesion to BMEC: LNCaP; assay type: cell-based; settings: FIG. 8; preliminary results
Method: as §1, §2

[3] = test system: Unicortical femoral defects; experiment: Peptide-mediated osteogenesis in cortical bone defects (Example 8); assay type: in vivo, Fisher 344 rats; settings: 100 mM peptide in gelfoam, two weeks postoperatively; for Effectiveness at stimulating osteogenesis and cortical bone repair: versus gelfoam+PBS
Method: In an in vivo study, all 13 peptides at a concentration of 100 mM were tested for their ability to potentiate osteogenesis. A gelfoam cylinder 1.5 mm in diameter 2 mm in length was used as carrier for the peptides. Unicortical femoral defects 1.5 mm in diameter were created bilaterally in Fisher 344 rats; the left femoral defect was filled with gelfoam+PBS (Control), and the right femur with gelfoam+peptide. The samples were harvested and examined two weeks postoperatively. To examine the effect of peptide concentration on cortical bone regeneration, peptide L7 (SEQ ID NO:5) was used at 1, 5, and 20 mM. […] The time course of cortical bone repair with 20 mM L7 was examined at 5, 10, 15, and 20 days.

[4] = test system: prostate cancer cells (CaP); experiment: Prostate cancer (CaP) cell adhesion to BMEC, cell line not distinguished; assay type: cell-based; settings: 50 μM and 100 μM tested
Method: as §1, §2
This observation will be examined further and exploited by the aims of this proposal to identify the binding partners of nucleolin in prostate cancer cells as well as to investigate bone tropic peptides as potential inhibitors of prostate cancer metastasis.

bone and bone marrow = experiment: In vivo biopanning with 12-mer peptide phage display library; parameters: species or system BALB/c mice; settings: for PERCENT FREQUENCY: phage eluted from bone and bone marrow; for PHAGE SEQUENCE FREQUENCY (number of times the sequence was found in a group of plaques): phage eluted from bone and bone marrow after repeated rounds
Text: The Ph.D.-12 Phage Display Peptide Library Kit (New England Biolabs, Beverly, Mass.) used in this study is based on a combinatorial library of random peptide 12-mers fused to a minor coat protein (pIII). […] The peptide is followed by a short spacer of four amino acid residues, the first three residues of which are glycine and the fourth of which is serine, and then the wild-type III sequence. The library consists of approximately 2.7×10^9 electroporated sequences, amplified once to yield approximately 55 copies of each sequence.
For in vivo biopanning, BALB/c mice 8 weeks of age were injected 3.4×10^10 pfu of phage into the heart. The animals were euthanized after 5 minutes, and the tissues (bone, bone marrow, kidney, liver, and spleen) were collected for analysis. The bound phage was eluted according the manufacturer's instructions. The eluted phage was titered, amplified, purified, and injected again at the same concentration.
The frequency of each peptide in bone and bone marrow was compared with its location in other tissues such as liver, kidney, lung, spleen, and brain. Thirteen unique peptide sequences eluted from bone and marrow were identified were identified by sequencing phage DNA. The peptides were synthesized using the polystyrene solid support on a Protein Technologies Symphony Multiple Channel Synthesizer.

prostate cancer cells = experiment: Chimeric tumors of killer-gene mesenchymal cells and prostate cancer cells treated with prodrug; assay type: in vivo, immune deficient rats
Method: Further experiments were carried out exploiting the phenomenon of mesenchymal cell homing to skeletal tissues. Cells transduced with thymidine kinase or cytidine deaminase, killer genes that can be expressed under the influence of a prodrug, lead to a cell kill effect on neighboring prostate cancer cells in a co-culture system in vitro. In vivo, the mesenchymal cells and prostate cancer cells were co-injected into subcutaneous sites in immune deficient rats. […] Therefore, a cell-based gene delivery system may be useful to pursue as potential therapy for metastatic cancer, particularly prostate cancer cells that have spread to bone.

[5] = test system: bovine aortic endothelial cells (BAEC); experiment: Peptide binding to BAEC in culture (Avidin-FITC); parameters: key: ✓: Check marks indicate positive binding observed with FITC; −: a dash indicates a negative result
Method: as §3
(§4) Bone marrow cells isolated from mouse femur were lifted with ethylenediaminetetraacetic acid (EDTA) and trypsin, resuspended, and allowed to attach on fibronectin-coated chamber slides for Avidin-FITC staining. […] The D1 cell is a multipotential mesenchymal stem-like line that was isolated from bone marrow and shown to have the characteristics of osteoprogenitor cells. This cell line has been well established and used successfully in several in vitro and in vivo studies in our laboratory. Peptide binding to human bone marrow endothelial cells (HBME) and bovine aortic endothelial cells (BAEC) in culture was also tested using the same procedure.

[6] = test system: Membrane and cytosol fractions from bovine aortic endothelial cells; experiment: Affinity chromatography of BAEC fractions on immobilized peptide; assay type: binding
Method: (§5) Membrane and cytosol fractions from human bone marrow endothelial cells and bovine aortic endothelial cells were prepared and used to identify the components from within these fractions that bind to the peptides using affinity chromatography). […] Cell surface nucleolin is present at higher concentrations in actively dividing cells and is down regulated in cells when they become quiescent. Nucleolin is the apparent cell surface receptor of E-coli intimin-gamma. Cell bound intimin has been proposed to trigger a host cell response similar to the extension of filipodia when cells bind to laminin. […] Table 3 provides a summary of peptide-binding partners (putative receptors) identified by affinity chromatography of cell lysates.

[7] = test system: Bone marrow cells isolated from mouse femur; experiment: Peptide binding to bone marrow cells in culture (Avidin-FITC); parameters: key to Localization of peptide binding: Marrow (cells in culture): ✓: Check marks indicate positive binding observed with FITC; −: a dash indicates a negative result; settings: FITC
Method: as §3, §4

[8] = test system: Membrane and cytosol fractions from human bone marrow endothelial cells; experiment: Affinity chromatography of HBME fractions on immobilized peptide; assay type: binding; parameters: key to Identification of binding partners by affinity chromatography: HBME: ✓: Check marks indicate positive binding observed with FITC; −: a dash indicates a negative result; settings: cell lysates
Method: as §5
Peptide Affinity Column Chromatography: Peptides identified from the phage display experiments in mouse bone and bone marrow were synthesized with an additional three-residue glycine linker and an N-terminal lysine residue. The lysine residue was used to specifically link the peptides to a support. Cell membranes from BMECs were solubilized with triton X-100. The solubilized proteins were passed through the peptide affinity column (total volume, 500 μL) followed by extensive washes with buffer. Retained proteins were eluted either with 100 mM solution of the same peptide as that immobilized on the column or with a wash of 0.1 N HCl-Glycine, pH 2.2. The eluates were analyzed by SDS PAGE and proteins observed in the gels were identified by LC/MS/MS.

Row | Binding to rib and long bone growth plate sections [2] | Compound | Effect on adherent BAEC (Experiment 1) [1] | Effect on adhesion of C4-2 cells to BMEC (C4-2 cells) | Effect on adhesion of LNCaP cells to BMEC (LNCaP cells) | Effectiveness at stimulating osteogenesis and cortical bone repair [3] | Concentrations at which peptide inhibits prostate cancer cell adhesion to BMEC [4] | PERCENT FREQUENCY (bone and bone marrow) [%] | PHAGE SEQUENCE FREQUENCY (number of times the sequence was found in a group of plaques) (bone and bone marrow) | Size of chimeric tumors (prostate cancer cells; mesenchymal cells and prostate cancer cells co-injected subcutaneously, prodrug treatment) | Serum PSA levels (prostate cancer cells; treated rats) | Histological appearance of repair tissue in the defect [3] | Localization of peptide binding: BAEC [5] | Effect on adherent BAEC (Experiment 3) ([1]; 0.1M peptide, cells adherent about 6 hours) | Binding partner from BAEC lysates ([6]; biotinylated peptide immobilized on avidin-agarose) | Identification of binding partners by affinity chromatography: BAEC ([6]; cell lysates) | Localization of peptide binding: Marrow (cells in culture) [7] | Identification of binding partners by affinity chromatography: HBME [8]
1 | no staining | ALA-THR-TRP-SER-HIS-HIS-LEU-SER-SER-ALA-GLY-LEU-GLY-GLY-GLY-SER (ATWSHHLSSAGLGGGS; listed as Homo sapiens) [Peptide R3] | the cells had lifted completely and most of the cells disappeared from the surface of the slides, leaving a lot of cell debris | dose-dependent inhibition of CaP cell invasion for both cell lines | dose-dependent inhibition of CaP cell invasion for both cell lines | most effective at stimulating osteogenesis and cortical bone repair | at 100 μM only | 34.5 | 10/29 |  |  |  |  |  |  |  |  | 
2 |  | Nc1nc2c(ncn2COC(CO)CO)c(=O)[nH]1 [gencyclovir] |  |  |  |  |  |  |  | diminished in size | drop in serum PSA levels |  |  |  |  |  |  | 
3 |  | ASP-SER-SER-ASN-PRO-ILE-PHE-TRP-ARG-PRO-SER-SER-GLY-GLY-GLY-SER (DSSNPIFWRPSSGGGS; listed as Homo sapiens) [Peptide L19] | no effect, with results similar to PBS | leaving the adhesion of the C4-2 cell line unaffected | strongly inhibited the less aggressive LNCaP cell | virtually no stimulatory effect on osteogenesis |  | 16.7 | 5/30 |  |  | while some ossification and cortical bone regeneration has occurred, considerable amounts of gelfoam remains in the defect |  |  |  |  |  | 
4 |  | GLN-ARG-SER-TRP-THR-LEU-ASP-SER-ALA-LEU-SER-MET-GLY-GLY-GLY-SER (QRSWTLDSALSMGGGS; listed as Homo sapiens) [Peptide L12] | the cells lifted and formed clusters that stained intensely |  |  | most effective at stimulating osteogenesis and cortical bone repair |  | 16.7 | 5/30 |  |  |  | ✓ | formed fewer clumps and considerably more debris | vimentin was found to bind | ✓Vimentin | ✓ | −
